# Laboratory results reported in patent EP1166781A1, “PROTEASOME INHIBITORS” (KYOWA HAKKO KOGYO CO., LTD., priority 1999, dated 2000).
# Where two headings read alike, the source gives them in different places.
# Tests used:
# [1] = system: Human colon cancer, WiDr cells; experiment: Antiproliferative activity in WiDr cells (MTT, 72 hours); type: cell-based
# Procedure: Human colon cancer, WiDr cells suspended in MEM media containing 10% of fetal calf serum were seeded in 96-well microtiter plates at 2 x 10^3cells/well, and precultured in an incubator with 5% of CO2 at 37°C for 24 hours. Then, each compound diluted appropriately with the media was added into the well at 50 µl/well. At this time, a final concentration of each compound is up to 100 µmol/l or 1 µmol/l. The cells were cultured in the incubator with 5% of CO2 at 37°C for additional 72 hours. At 5 hours before the culturing was terminated, MTT [3-(4,5-dimethylthiazol-2-yl)-2,5-[…] bromide] dissolved in the medium at a final concentration of 1 mg/mL was added into the well at 50 µl/well. After the culturing, dimethyl sulfoxide was added to the well at 150 µl/well, and the plate was vigorously stirred using a plate mixer to dissolve crystals of MTT-formazan completely. […]
# [2] = target: T1, proteasome (Homo sapiens, UniProt P28074); experiment: Proteasome inhibitory activity (Suc-Leu-Leu-Val-Tyr-AMC cleavage, crude enzyme solution from HeLa S3 cell extract); type: biochemical
# T1 construct: The obtained high molecular fraction (molecular weight >500K) was used as an enzyme solution for the detection of proteasome activity; endogenous in cells; host or cells: HeLa S3 cells: homogenate, 100,000G supernatant, >500K fraction from Centricon-500
# Procedure: 1 x 10^9 of HeLa S3 cells were dispersed in 5 ml of the buffer A [20 mmol/L of Tris (pH 7.5), 2 mmol/L of ATP, 5 mmol/L of MgCl2, 1 mmol/L of dithiothreitol (DTT)], and then homogenized at 4°C. The supernatant centrifuged at 100,000G was concentrated by a Centricon-500 (supplied by Amicon) and diluted with 2.5 ml of the buffer B [25 mmol/L of Tris/HCl (pH 7.5), 2 mmol/L of ATP, 1 mmol/L of DTT, 20% of glycerol]. The obtained high molecular fraction (molecular weight >500K) was used as an enzyme solution for the detection of proteasome activity. Suc-Leu-Leu-Val-Tyr-AMC [Suc: Succinyl; AMC: Aminomethylcoumarin](supplied by Peptide Institute, Inc.) was used as a substrate for measuring inhibitory activity for proteasome (stored as a 2 mmol/L DMSO solution). The reaction was carried out by the following method using 96-well microtiter plates. To 96 µl of a reaction buffer [20 mmol/L of Tris/HCl (pH 8), 0.5 mmol/L of EDTA, 0.04% of sodium dodecylsulfate (SDS)] were added 1 µl of a drug solution (DMSO) and 2 µl of an enzyme solution followed by adding 1 µl of a substrate solution thereto, and then the mixture was incubated at 37°C for one hour. […]
# [3] = crude proteasome fraction (>500K) from HeLa S3 cells, substrate Suc-Leu-Leu-Val-Tyr-AMC, 37°C for one hour, read-out: IC50
# [4] = crude proteasome fraction (>500K) from HeLa S3 cells, substrate Suc-Leu-Leu-Val-Tyr-AMC, 37°C for one hour
SMILES,"IC50 [2, 3] [nM]",also measured
CCCCOC(=O)C(CC1CC1NC(=O)C1OC(=O)C1C(C)CC)NC(=O)C(C)NC(=O)OC(C)(C)C (centres unmarked) [Compound 11],19,IC50 [1]: 10 nM
CCC(C)C1C(=O)OC1C(=O)NC1CC1CC(NC(=O)C(C)NC(=O)OC(C)(C)C)C(=O)OC (centres unmarked) [Compound 1],,IC50 [1]: 790 nM; IC50 [2]: 50 nM
CCC(C)C1C(=O)OC1C(=O)NC1CC1CC(NC(=O)C(C)NC=O)C(=O)OCc1ccccc1 (centres unmarked) [Compound 34],38,IC50 [1]: 1200 nM
CCCCNC(=O)C(CC1CC1NC(=O)C1OC(=O)C1C(C)CC)NC(=O)C(C)N (centres unmarked) [Compound 25],,IC50 [1]: 59 nM; IC50 [2]: 24 nM
CCC(C)C1C(=O)OC1C(=O)NCCCC(NC(=O)C(C)NC(=O)OC(C)(C)C)C(=O)OCc1ccccc1 (centres unmarked) [Compound 45],,IC50 [1]: 300 nM; IC50 [2]: 6 nM
CCC(C)C1C(=O)OC1C(=O)NC1CC1CC(NC(=O)C(C)NC(=O)OC(C)(C)C)C(=O)NCc1cccc2ccccc12 (centres unmarked) [Compound 21],,IC50 [1]: 520 nM; IC50 [2]: 4 nM
CC(C)C[C@@H]1C(=O)O[C@H]1C(=O)NCCC[C@H](NC(=O)[C@H](C)NC(=O)OC(C)(C)C)C(=O)OCc1ccccc1 [Compound 59],33,
COc1ccc(CC(NC(=O)OC(C)(C)C)C(=O)OCc2ccccc2)cc1NC(=O)C1OC(=O)C1CC(C)C (centres unmarked) [Compound 81],,"IC50 [2, 4]: 500 nM"
CCC(C)C1C(=O)OC1C(=O)NC1CC1CC1NC(=O)C(C)NC1=O (centres unmarked) [Compound 44],,"IC50 [2, 4]: 47 nM"
CC(C)CC1C(=O)OC1C(=O)NCC(NC(=O)OC(C)(C)C)C(=O)OCc1ccccc1 (centres unmarked) [Compound 47],,"IC50 [2, 4]: 150 nM"
CCC(C)C1C(=O)OC1C(=O)NC1CC1CC(NC(=O)C(C)N1C(=O)c2ccccc2C1=O)C(=O)OCc1ccccc1 (centres unmarked) [Compound 42],,IC50 [2]: 22 nM
CCC(C)C1C(=O)OC1C(=O)NC1CC1CC(NC(=O)C(C)NC(=O)OC(C)(C)C)C(=O)N[C@@H](C)C(=O)OCc1ccccc1 (some centres unmarked) [Compound 27],,IC50 [2]: 3 nM
CC(C)CC1C(=O)OC1C(=O)NCCCCC(NC(=O)OC(C)(C)C)C(=O)OCc1ccccc1 (centres unmarked) [Compound 48],50,
CCC(C)C1C(=O)OC1C(=O)NC1CC1CC(NC(=O)C(C)NC(=O)OCc1ccc(Br)cc1)C(=O)OCc1ccccc1 (centres unmarked) [Compound 29],5,
CCC(C)C1C(=O)OC1C(=O)NC1CC1CC(NC(=O)C(C)N)C(=O)OC (centres unmarked) [Compound 2],70,
CCC(C)C1C(=O)OC1C(=O)NC1CC1CC(NC(=O)C(C)NC(=O)OC(C)(C)C)C(=O)OCc1cccc(F)c1 (centres unmarked) [Compound 8],14,

# More lines, main results first:
"IC50 [2, 3] [nM]",SMILES,also measured
22,CC(C)C[C@@H]1C(=O)O[C@H]1C(=O)NC1CC1CC(NC(=O)OC(C)(C)C)C(=O)NCc1cccc2ccccc12 (some centres unmarked) [Compound 90],IC50 [1]: 40000 nM
400,"CCC(C)C1C(=O)OC1C(=O)NC1CC1CC(NC(=O)C(C)N)C(=O)O (centres unmarked) [UCK14A1, reference compound]",IC50 [1]: > 30000 nM
77,CC(C)CC1C(=O)OC1C(=O)NCCCCCC(=O)OCc1ccccc1 (centres unmarked) [Compound 55],
30,CC(C)CC1C(=O)OC1C(=O)NCCCCC(NC(=O)C(C)NC(=O)OC(C)(C)C)C(=O)OCc1ccccc1 (centres unmarked) [Compound 49],
1,CC(C)CC1C(=O)OC1C(=O)NCCCCC(NC(=O)C(C)NC(=O)OC(C)(C)C)C(=O)NCc1cccc2ccccc12 (centres unmarked) [Compound 75],
47,CC(C)CC1C(=O)OC1C(=O)NCCCCCNC(=O)C1C(OCc2ccccc2)CCN1C(=O)OC(C)(C)C (centres unmarked) [Compound 54],
3,CC(C)=C[C@@H]1C(=O)O[C@H]1C(=O)NCCCC[C@H](NC(=O)[C@H](C)NC(=O)OC(C)(C)C)C(=O)NCc1cccc2ccccc12 [Compound 74],
100,CC(C)C[C@@H]1C(=O)O[C@H]1C(=O)Nc1cc(C[C@H](NC(=O)OC(C)(C)C)C(=O)OCc2ccccc2)ccc1OCc1ccccc1 [Compound 82],
26,CC(C)CC1C(=O)OC1C(=O)NCCCC(NC(=O)OC(C)(C)C)C(=O)OCc1ccccc1 (centres unmarked) [Compound 58],
40,CC(C)CC1C(=O)OC1C(=O)NCCCC(NC(=O)C(C)N)C(=O)OCc1ccccc1 (centres unmarked) [Compound 60],
250,CC(C)CC1C(=O)OC1C(=O)NCCCCCNC(=O)C(C)NC(=O)OC(C)(C)C (centres unmarked) [Compound 53],
